Results taken from the Kinase Knowledgebase extract (Sharma et al. 2016).
Converted amounts (≈) assume the structure as drawn. “And” between values parts separate entries of the source, which are not always exact repeats. Equal entries are not always repeated.

Molecular target: EGFR (UniProt P00533)
Sequence (P00533 whole entry, looked up): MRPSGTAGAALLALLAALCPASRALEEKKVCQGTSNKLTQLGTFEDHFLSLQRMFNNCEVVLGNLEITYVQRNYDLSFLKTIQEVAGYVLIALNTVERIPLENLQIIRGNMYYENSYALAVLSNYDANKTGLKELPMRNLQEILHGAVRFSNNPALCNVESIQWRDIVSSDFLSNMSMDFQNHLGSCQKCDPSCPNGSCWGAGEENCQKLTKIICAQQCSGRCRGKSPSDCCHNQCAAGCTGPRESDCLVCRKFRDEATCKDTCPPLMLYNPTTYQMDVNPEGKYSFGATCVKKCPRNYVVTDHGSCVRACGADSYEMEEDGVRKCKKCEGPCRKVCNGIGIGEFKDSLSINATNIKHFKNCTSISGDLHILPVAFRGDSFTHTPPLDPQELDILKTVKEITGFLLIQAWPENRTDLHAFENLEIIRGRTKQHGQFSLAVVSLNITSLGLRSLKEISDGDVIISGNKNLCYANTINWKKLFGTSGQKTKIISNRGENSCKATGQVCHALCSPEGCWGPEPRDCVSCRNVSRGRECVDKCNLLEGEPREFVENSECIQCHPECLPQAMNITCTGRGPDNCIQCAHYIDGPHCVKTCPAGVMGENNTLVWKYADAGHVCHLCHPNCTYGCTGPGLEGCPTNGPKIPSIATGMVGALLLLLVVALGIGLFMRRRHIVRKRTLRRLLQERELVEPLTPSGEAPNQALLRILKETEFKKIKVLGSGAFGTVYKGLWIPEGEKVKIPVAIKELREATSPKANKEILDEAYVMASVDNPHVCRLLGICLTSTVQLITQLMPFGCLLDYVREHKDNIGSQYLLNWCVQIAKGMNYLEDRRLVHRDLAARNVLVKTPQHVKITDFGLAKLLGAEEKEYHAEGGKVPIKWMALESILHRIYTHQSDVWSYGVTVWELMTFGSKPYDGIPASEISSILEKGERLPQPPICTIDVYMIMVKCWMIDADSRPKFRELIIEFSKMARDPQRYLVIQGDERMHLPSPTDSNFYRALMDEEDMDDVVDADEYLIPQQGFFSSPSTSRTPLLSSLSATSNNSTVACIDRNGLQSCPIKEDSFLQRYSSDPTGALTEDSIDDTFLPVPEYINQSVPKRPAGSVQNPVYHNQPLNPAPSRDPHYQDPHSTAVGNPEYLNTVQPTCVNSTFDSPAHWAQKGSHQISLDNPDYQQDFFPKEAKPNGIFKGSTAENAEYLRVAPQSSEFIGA

IC50	SMILES
3.5 to 4.5 µg/mL (≈ 6.88 to 8.85 µM)	COc1cc(Nc2ncnc(-n3c(Nc4ccc5[nH]ccc5c4)nc4ccccc43)n2)cc(OC)c1OC
> 4.5 µg/mL	COc1cc(Nc2ncnc(Nc3ccc(C(C)C)cc3)n2)cc(OC)c1OC
2.4 to 3.5 µg/mL (≈ 4.42 to 6.44 µM)	COc1ccc(CNc2nc3ccccc3n2-c2ncnc(Nc3cc(OC)c(OC)c(OC)c3)n2)cc1OC
3.5 to 4.5 µg/mL (≈ 7.22 to 9.29 µM)	COc1cc(Nc2ncnc(-c3cccnc3NC3CCCc4ccccc43)n2)cc(OC)c1OC (stereo unspecified)
< 0.4 µg/mL	COc1cc(Nc2ncnc(Nc3ccc(Cl)c4ccccc34)n2)cc(OC)c1OC
2.4 to 3.5 µg/mL (≈ 6.12 to 8.92 µM)	COc1cc(Nc2ncnc(-n3c(C)nc4ccccc43)n2)cc(OC)c1OC
> 4.5 µg/mL	COc1cc(Nc2ncnc(-n3c(Nc4ccc(C#N)cc4)nc4ccccc43)n2)cc(OC)c1OC
> 4.5 µg/mL	COc1cc(C)c(Nc2ncnc(-n3c(N)nc4ccccc43)n2)cc1OC
0.4 to 2.4 µg/mL (≈ 0.881 to 5.29 µM)	COc1cc(Nc2ncnc(Nc3cc(-c4cccc(Cl)c4)n[nH]3)n2)cc(OC)c1OC
> 4.5 µg/mL	COc1cc(Nc2ncnc(-n3c(Nc4ccc(C(C)C)cc4)nc4ccccc43)n2)cc(OC)c1OC
> 4.5 µg/mL	COc1cc(Nc2ncnc(-c3cccc4ccccc34)n2)cc(OC)c1OC
3.5 to 4.5 µg/mL (≈ 8.87 to 11.4 µM)	COc1cc(Nc2ncnc(-n3c(=O)[nH]c4ccccc43)n2)cc(OC)c1OC
> 4.5 µg/mL	COc1cc(Nc2ncnc(N3CCc4ccccc4C3)n2)cc(OC)c1OC
> 4.5 µg/mL	COc1cc(Nc2ncnc(-c3c(O)[nH]c4ccccc34)n2)cc(OC)c1OC
> 4.5 µg/mL	COc1cc(Nc2ncnc(-c3cccnc3NCC(C)c3ccccc3)n2)cc(OC)c1OC (stereo unspecified)
< 0.4 µg/mL	COc1cc(Nc2ncnc(NC3CC3c3ccccc3)n2)cc(OC)c1OC (stereo unspecified)
< 0.4 µg/mL	COc1cc(Nc2ncnc(Nc3ccc(Cl)cc3F)n2)cc(OC)c1OC
> 4.5 µg/mL	CCN(CC)CCOc1ccc(Nc2ncnc(-n3c(N)nc4ccccc43)n2)cc1OC
> 4.5 µg/mL	COc1cc(Nc2ncnc(Nc3ccc(NCc4ccccc4)cc3)n2)cc(OC)c1OC
> 4.5 µg/mL	COc1cc(Nc2ncnc(-n3c(NCc4nc5ccccc5[nH]4)nc4ccccc43)n2)cc(OC)c1OC
> 4.5 µg/mL	CCN(CC)CCOc1cc(Nc2ncnc(-n3c(N)nc4ccccc43)n2)ccc1OC

IC50	SMILES
> 4.5 µg/mL	CCOC(=O)Cc1cn(-c2ncnc(Nc3cc(OC)c(OC)c(OC)c3)n2)c2ccccc12
3.5 to 4.5 µg/mL (≈ 6.58 to 8.46 µM)	COc1cc(Nc2ncnc(-n3c(NCc4ccc(Cl)cc4C)nc4ccccc43)n2)cc(OC)c1OC
> 4.5 µg/mL	COc1cc(Nc2ncnc(-n3ccc4cc(O)ccc43)n2)cc(OC)c1OC
> 4.5 µg/mL	COc1cc(Nc2ncnc(-n3c(NCc4ccc(Cl)cc4)nc4ccccc43)n2)cc(OC)c1OC
< 0.4 µg/mL	COc1cc(Nc2ncnc(N(C/C=C/c3ccccc3)c3ccc(Cl)cc3)n2)cc(OC)c1OC
> 4.5 µg/mL	COc1ccc(Nc2nc3ccccc3n2-c2ncnc(Nc3cc(OC)c(OC)c(OC)c3)n2)cc1OC
2.4 to 3.5 µg/mL (≈ 6.24 to 9.11 µM)	COc1ccc(Oc2ncnc(Nc3cc(OC)c(OC)c(OC)c3)n2)cc1
> 4.5 µg/mL	COc1cc(Nc2ncnc(-c3ccccc3)n2)cc(OC)c1OC
> 4.5 µg/mL	COc1cc(Nc2ncnc(-n3c(Nc4ccccc4)nc4ccccc43)n2)cc(OC)c1OC
> 4.5 µg/mL	COc1cc(Nc2ncnc(-n3c(NCCc4ccccn4)nc4ccccc43)n2)cc(OC)c1OC
> 4.5 µg/mL	COc1cc(Nc2ncnc(-n3c(NC(C)C)nc4ccccc43)n2)cc(OC)c1OC
> 4.5 µg/mL	COc1ccc(Nc2ncnc(-n3c(N)nc4ccccc43)n2)cc1OC
> 4.5 µg/mL	COc1cc(Nc2ncnc(-n3c(NCc4ccc(OC(F)(F)F)cc4)nc4ccccc43)n2)cc(OC)c1OC
3.5 to 4.5 µg/mL (≈ 8.59 to 11 µM)	COc1ccc2c(ccn2-c2ncnc(Nc3cc(OC)c(OC)c(OC)c3)n2)c1
0.4 to 2.4 µg/mL (≈ 0.817 to 4.9 µM)	COc1cc(Nc2ncnc(-n3c(NCc4cccs4)nc4ccccc43)n2)cc(OC)c1OC
0.4 to 2.4 µg/mL (≈ 0.982 to 5.89 µM)	COc1cc(Nc2ncnc(Nc3ccc4c(cnn4C)c3)n2)cc(OC)c1OC
> 4.5 µg/mL	COc1cc(Nc2ncnc(-n3ccc4cc(OCc5ccccc5)ccc43)n2)cc(OC)c1OC
> 4.5 µg/mL	COc1cc(Nc2ncnc(-n3c(NCc4ccc([N+](=O)[O-])cc4)nc4ccccc43)n2)cc(OC)c1OC
> 4.5 µg/mL	COc1cc(Nc2ncnc(Nc3nc(-c4ccccc4)cs3)n2)cc(OC)c1OC
> 4.5 µg/mL	COc1cc(Nc2ncnc(-n3c(N)nc4ccccc43)n2)cc(OCCN2CCOCC2)c1OC
> 4.5 µg/mL	COc1cc(Nc2ncnc(-n3c(NCCCc4ccccc4)nc4ccccc43)n2)cc(OC)c1OC

The next lines start with the compound.

SMILES	IC50
c1ccc(Cn2ncc3cc(Nc4ncnc(NCCN5CCCC5)n4)ccc32)cc1	> 4.5 µg/mL
COc1ccc(Nc2ncnc(Nc3ccc(Br)cc3F)n2)cc1OC	2.4 to 3.5 µg/mL (≈ 5.71 to 8.33 µM)
COC(=O)c1ccc(-c2cc(Nc3ncnc(NCc4ccccc4F)n3)[nH]n2)cc1	> 4.5 µg/mL
COc1cc(Nc2ncnc(Nc3cc(C)nn3C)n2)cc(OC)c1OC	3.5 to 4.5 µg/mL and > 4.5 µg/mL
COC(=O)c1ccc(-c2cc(Nc3ncnc(NCCc4ccc(OC)cc4)n3)[nH]n2)cc1	> 4.5 µg/mL
COc1cc(Nc2ncnc(-c3cccnc3NC3CCCCC3)n2)cc(OC)c1OC	> 4.5 µg/mL
O=c1[nH]c2ccccc2n1-c1ncnc(Nc2ccc3[nH]ncc3c2)n1	> 4.5 µg/mL
COc1ccc(Nc2ncnc(Nc3cc(OC)c(OC)c(OC)c3)n2)cc1OC	3.5 to 4.5 µg/mL (≈ 8.47 to 10.9 µM)
COc1cc(Nc2ncnc(-c3cccnc3NCC3CCCCC3)n2)cc(OC)c1OC	> 4.5 µg/mL
O=c1[nH]c2ccccc2n1-c1ncnc(Nc2ccc(C(F)(F)F)cc2)n1	> 4.5 µg/mL
Cc1ccc(Nc2ncnc(N)n2)cc1	> 4.5 µg/mL
COc1ccc(Nc2ncnc(Nc3ccc(OC)c(OC)c3)n2)cc1OC	> 4.5 µg/mL
COc1ccc(Nc2ncnc(NCc3ncc(C(F)(F)F)cc3Cl)n2)cc1OC	2.4 to 3.5 µg/mL (≈ 5.44 to 7.94 µM)
FC(F)C(F)(F)Oc1cccc(Nc2ncnc(-c3ccnc(N4CCCCC4)c3)n2)c1	> 4.5 µg/mL
O=C(Nc1ccc(Nc2ncnc(-n3c(=O)[nH]c4ccccc43)n2)cc1)O[C@@H]1CCOC1	> 4.5 µg/mL
COc1ccc(Nc2ncnc(-c3ccccc3)n2)cc1	> 4.5 µg/mL
COc1cc(Nc2ncnc(Nc3[nH]ncc3-c3cccs3)n2)cc(OC)c1OC	> 4.5 µg/mL
CCOc1cccc(Nc2ncnc(N3CCCc4cc(C)ccc43)n2)c1	< 0.4 µg/mL
CCN(c1cccc(C)c1)c1ncnc(Nc2cc(OC)c(OC)c(OC)c2)n1	< 0.4 µg/mL
CCN(CC)CCOc1cc(Nc2ncnc(Nc3cc(OC)c(OC)c(OC)c3)n2)ccc1OC	> 4.5 µg/mL
COc1ccc(Nc2ncnc(N(C)C3CCCCC3)n2)cc1OC	< 0.4 µg/mL
COC(=O)c1cccc(Nc2ncnc(Nc3cc(-c4ccco4)n[nH]3)n2)c1	> 4.5 µg/mL

SMILES	IC50
CC(C)(C)c1cc(Nc2ncnc(Nc3ccc(CC(=O)O)cc3)n2)[nH]n1	0.4 to 2.4 µg/mL (≈ 1.09 to 6.53 µM)
Cc1ccc2c(c1)CCCN2c1ncnc(Nc2cc[nH]n2)n1	0.4 to 2.4 µg/mL (≈ 1.3 to 7.81 µM)
COC(=O)c1ccc(-c2cc(Nc3ncnc(Nc4cc(Cl)cc(Cl)c4)n3)[nH]n2)cc1	> 4.5 µg/mL
CC(C)(C)c1cc(Nc2ncnc(Cl)n2)[nH]n1	> 4.5 µg/mL
COC(=O)c1cc(Nc2ncnc(Nc3cc(-c4ccco4)n[nH]3)n2)cc(C(=O)OC)c1	> 4.5 µg/mL
COc1ccc(Sc2ncnc(Nc3cc(OC)c(OC)c(OC)c3)n2)cc1	> 4.5 µg/mL
CC(C)Nc1ncccc1-c1ncnc(Nc2ccc(N3CCOCC3)cc2)n1	0.4 to 2.4 µg/mL (≈ 1.02 to 6.13 µM)
CN1CCN(Cc2cccc(Nc3ncnc(Nc4cccc5ccccc45)n3)c2)CC1	> 4.5 µg/mL
Nc1nc2ccccc2n1-c1ncnc(Nc2cccc(Cn3ccnn3)c2)n1	2.4 to 3.5 µg/mL (≈ 6.24 to 9.1 µM)
COc1ccc(Nc2ncnc(N(C)c3cccc(Cl)c3)n2)cc1OC	< 0.4 µg/mL
O=c1[nH]c2ccccc2n1-c1ncnc(Nc2ccccc2)n1	> 4.5 µg/mL
O=C(O)Cc1cccc(Nc2ncnc(Nc3ccc(Cl)cc3F)n2)c1	0.4 to 2.4 µg/mL (≈ 1.07 to 6.42 µM)
CN(c1cccc(Cl)c1)c1ncnc(NCCOCCO)n1	> 4.5 µg/mL
CN(c1cccc(Cl)c1)c1ncnc(Nc2ccccc2)n1	< 0.4 µg/mL
CN(c1cccc(Cl)c1)c1ncnc(Nc2cccc(Cc3nnn[nH]3)c2)n1	< 0.4 µg/mL
CN(c1cccc(Cl)c1)c1ncnc(Nc2ccc(S(C)(=O)=O)cc2)n1	< 0.4 µg/mL
c1ccc(-c2cc(Nc3ncnc(Nc4ccc5[nH]ncc5c4)n3)[nH]n2)cc1	0.4 to 2.4 µg/mL (≈ 1.08 to 6.5 µM)
O=c1[nH]c2ccccc2n1-c1ncnc(Nc2ccc(Cl)cc2)n1	> 4.5 µg/mL
NC(=O)c1ccc(Nc2ncnc(-c3ccccc3)n2)cc1	> 4.5 µg/mL
c1cc(Cn2ccnn2)cc(Nc2ncnc(-n3c(Nc4ccc5[nH]ccc5c4)nc4ccccc43)n2)c1	2.4 to 3.5 µg/mL (≈ 4.8 to 7.01 µM)
COc1ccc(-c2ncnc(Nc3cc(OC)c(OC)c(OC)c3)n2)cc1OC	3.5 to 4.5 µg/mL (≈ 8.78 to 11.3 µM)
COc1cc(Nc2ncnc(Nc3ccc4c(c3)OCO4)n2)cc(OC)c1OC	0.4 to 2.4 µg/mL (≈ 1.01 to 6.04 µM)

SMILES	IC50
Cc1cccc(Nc2ncnc(N(C)c3cccc(Br)c3)n2)c1	< 0.4 µg/mL
COc1cc(Nc2ncnc(Nc3cc(OC)c(OC)c(OC)c3)n2)cc(OC)c1	> 4.5 µg/mL
CN1CCN(Cc2cccc(Nc3ncnc(Nc4ccc5c(cnn5Cc5ccccc5)c4)n3)c2)CC1	> 4.5 µg/mL
CCOC(=O)Cc1ccc(Nc2ncnc(-c3ccccc3)n2)cc1	> 4.5 µg/mL
COc1cc(Nc2ncnc(N[C@H]3CCCc4ccccc43)n2)cc(OC)c1OC	3.5 to 4.5 µg/mL (≈ 8.59 to 11 µM)
COc1cc(CNc2ncnc(N(C)c3cccc(Cl)c3)n2)cc(OC)c1OC	2.4 to 3.5 µg/mL (≈ 5.77 to 8.42 µM)
COc1cc(Nc2ncnc(Nc3ccc(NC(C)=O)c(C(F)(F)F)c3)n2)cc(OC)c1OC	2.4 to 3.5 µg/mL (≈ 5.02 to 7.32 µM)
COc1cc(Nc2ncnc(-n3c(=O)[nH]c4ccccc43)n2)cc(OCCN2CCOCC2)c1OC	> 4.5 µg/mL
COC(=O)c1ccc(-c2cc(Nc3ncnc(NCc4ccccc4OC)n3)[nH]n2)cc1	> 4.5 µg/mL
COc1ccc(Nc2ncnc(NCCCN3CCN(C)CC3)n2)cc1OC	> 4.5 µg/mL
FC(F)C(F)(F)Oc1cccc(Nc2ncnc(-c3cccs3)n2)c1	> 4.5 µg/mL
COC(=O)c1ccc(-c2cc(Nc3ncnc(Nc4cccc5ncccc45)n3)[nH]n2)cc1	> 4.5 µg/mL
COc1cc(Nc2ncnc(Nc3cccc(Br)c3)n2)cc(OC)c1OC	< 0.4 µg/mL
COc1ccc(Nc2ncnc(N(C)C3CCN(Cc4ccccc4)C3)n2)cc1OC (stereo unspecified)	> 4.5 µg/mL
COc1cc(Nc2ncnc(-c3ccnc(NCCCN)c3)n2)cc(OC)c1OC	> 4.5 µg/mL
COc1ccc(Nc2ncnc(Nc3ccc4c(c3)C(=O)N(C)C4=O)n2)cc1OC	> 4.5 µg/mL
CCOc1ccc(Nc2ncnc(Nc3ccc(OCc4ccccc4)cc3)n2)cc1OCC	0.4 to 2.4 µg/mL (≈ 0.874 to 5.25 µM)
COc1ccc(Nc2ncnc(Nc3cccc(-c4ccnc(C)n4)c3)n2)cc1OC	> 4.5 µg/mL
Oc1cccc(Nc2ncnc(-c3ccccc3)n2)c1	> 4.5 µg/mL
c1ccc(CNc2ncccc2-c2ncnc(Nc3cccc(Cn4ccnn4)c3)n2)cc1	0.4 to 2.4 µg/mL (≈ 0.918 to 5.51 µM)
